According to patent US20240382629A1, “HETEROBIVALENT AND HOMOBIVALENT AGENTS TARGETING FIBROBLAST ACTIVATION PROTEIN ALPHA AND/OR PROSTATE-SPECIFIC MEMBRANE ANTIGEN” (The Johns Hopkins University, priority 2021, published 2024):
Where two headings read alike, the source gives them in different places.

What was measured:
Assay type in all cases: biochemical
[1] = biological target: PREP (Homo sapiens (Human), UniProt P48147); experiment: PREP inhibition assay (recombinant enzyme, Z-Gly-Pro-AMC substrate); conditions: Table 3
Method: (§1) PSMA binding affinities of the compounds were determined using a competitive inhibition assay as previously reported. […] FAP, prolyl endopeptidase (PREP), and […] (DPPIV) inhibition assays: Recombinant enzymes (FAP, PREP, DPPIV) were purchased from R&D Systems (Minneapolis, MN). […] Z-Gly-Pro-AMC was used as a substrate for FAP and PREP. H-Gly-Pro-AMC was used as a substrate for DPPIV. The recombinant enzyme (0.4 μg/mL) was incubated with varying amounts of the test articles in the presence of the designated substrate (80 μM) for 10 min at room temperature. Fluorescence intensity was measured with 380 nm excitation and 460 nm emission using the Cytation 5 Cell Imaging Multi-Mode Reader (BioTek, Winooski, VT). IC50 and Ki values were obtained using a sigmoidal dose-response function.

[2] = biological target: DPPIV (Homo sapiens (Human), UniProt P27487); experiment: DPPIV inhibition assay (recombinant enzyme, H-Gly-Pro-AMC substrate)
Method: as §1

[3] = biological target: FAP (Homo sapiens (Human), UniProt Q12884); experiment: FAP inhibition assay (recombinant enzyme, Z-Gly-Pro-AMC substrate); conditions: Table 3; for Ki: read-out: FAP Ki
Method: as §1

PREP, sequence (P48147 whole entry): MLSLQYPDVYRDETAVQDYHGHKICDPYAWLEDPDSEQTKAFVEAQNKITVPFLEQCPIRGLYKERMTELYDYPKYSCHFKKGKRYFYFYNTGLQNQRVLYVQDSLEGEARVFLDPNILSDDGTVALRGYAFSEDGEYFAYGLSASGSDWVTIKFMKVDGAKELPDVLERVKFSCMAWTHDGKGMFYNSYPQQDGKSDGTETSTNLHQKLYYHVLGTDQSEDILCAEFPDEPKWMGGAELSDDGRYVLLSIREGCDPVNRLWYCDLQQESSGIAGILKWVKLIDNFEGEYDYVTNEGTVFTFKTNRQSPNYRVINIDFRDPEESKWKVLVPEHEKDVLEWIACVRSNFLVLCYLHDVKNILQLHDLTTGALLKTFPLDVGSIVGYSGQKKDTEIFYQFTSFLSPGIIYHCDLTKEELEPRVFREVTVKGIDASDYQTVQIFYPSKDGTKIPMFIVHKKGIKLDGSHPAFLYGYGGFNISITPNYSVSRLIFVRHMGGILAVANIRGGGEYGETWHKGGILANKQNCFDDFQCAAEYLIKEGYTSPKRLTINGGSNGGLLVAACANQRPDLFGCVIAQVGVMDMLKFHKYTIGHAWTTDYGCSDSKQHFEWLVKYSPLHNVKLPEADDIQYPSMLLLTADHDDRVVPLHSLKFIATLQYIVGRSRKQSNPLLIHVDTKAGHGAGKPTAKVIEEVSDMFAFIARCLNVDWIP
FAP, sequence (Q12884 whole entry): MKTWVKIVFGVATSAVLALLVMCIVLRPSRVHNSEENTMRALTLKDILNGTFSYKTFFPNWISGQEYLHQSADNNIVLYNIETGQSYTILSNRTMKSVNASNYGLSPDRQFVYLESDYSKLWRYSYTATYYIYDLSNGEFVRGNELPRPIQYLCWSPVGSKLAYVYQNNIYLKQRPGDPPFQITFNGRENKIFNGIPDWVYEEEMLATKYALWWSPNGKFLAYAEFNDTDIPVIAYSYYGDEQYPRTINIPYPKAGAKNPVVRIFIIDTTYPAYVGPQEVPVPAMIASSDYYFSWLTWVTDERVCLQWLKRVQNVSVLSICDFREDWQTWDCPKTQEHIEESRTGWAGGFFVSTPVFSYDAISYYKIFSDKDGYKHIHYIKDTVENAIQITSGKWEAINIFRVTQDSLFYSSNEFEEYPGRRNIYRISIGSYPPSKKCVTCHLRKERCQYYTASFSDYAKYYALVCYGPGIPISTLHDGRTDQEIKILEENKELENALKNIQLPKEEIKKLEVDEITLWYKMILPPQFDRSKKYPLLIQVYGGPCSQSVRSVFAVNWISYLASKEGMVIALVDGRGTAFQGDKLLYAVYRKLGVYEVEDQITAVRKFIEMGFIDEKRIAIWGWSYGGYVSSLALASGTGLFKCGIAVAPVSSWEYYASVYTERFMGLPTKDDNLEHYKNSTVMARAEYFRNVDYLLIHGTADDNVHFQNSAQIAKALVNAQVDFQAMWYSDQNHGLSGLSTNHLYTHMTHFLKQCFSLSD
DPPIV, sequence (P27487 whole entry): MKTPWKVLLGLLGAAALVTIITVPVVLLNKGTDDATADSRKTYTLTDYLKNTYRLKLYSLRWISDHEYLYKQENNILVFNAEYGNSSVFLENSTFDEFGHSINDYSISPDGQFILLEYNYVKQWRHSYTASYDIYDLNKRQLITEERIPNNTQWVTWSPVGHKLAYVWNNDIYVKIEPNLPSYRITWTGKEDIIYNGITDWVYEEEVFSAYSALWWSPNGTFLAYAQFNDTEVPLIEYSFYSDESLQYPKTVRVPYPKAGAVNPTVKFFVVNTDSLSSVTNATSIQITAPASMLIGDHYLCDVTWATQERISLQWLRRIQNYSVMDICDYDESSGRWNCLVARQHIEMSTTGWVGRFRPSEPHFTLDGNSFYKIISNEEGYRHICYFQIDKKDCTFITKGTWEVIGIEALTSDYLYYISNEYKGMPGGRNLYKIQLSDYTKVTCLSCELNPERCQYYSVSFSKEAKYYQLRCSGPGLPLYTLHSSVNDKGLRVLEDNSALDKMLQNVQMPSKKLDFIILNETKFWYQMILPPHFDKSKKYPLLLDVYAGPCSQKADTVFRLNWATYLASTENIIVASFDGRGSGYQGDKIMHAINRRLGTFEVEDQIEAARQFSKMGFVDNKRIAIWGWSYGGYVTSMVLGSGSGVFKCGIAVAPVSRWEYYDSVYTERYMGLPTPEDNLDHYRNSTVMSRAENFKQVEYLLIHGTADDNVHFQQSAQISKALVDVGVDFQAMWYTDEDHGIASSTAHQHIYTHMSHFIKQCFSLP

Molecule `N#C[C@@H]1CCCN1C(=O)CNC(=O)c1ccnc2cccc(F)c12` [JHU1219438] has an IC50 [1] of 0.0958 µM, an IC50 ([2]; Table 3, read-out: DPPIV IC50) of over 20 µM and an IC50 [3] of 0.000912 µM. The Ki [3] was 0.182 nM.
Work on `N#C[C@@H]1CC(F)(F)CN1C(=O)CNC(=O)c1ccnc2ccc(F)cc12` [JHU1220466] yielded an IC50 [1] of 0.047 µM, an IC50 ([2]; Table 3, read-out: DPPIV IC50) of 3.5 µM and an IC50 [3] of 0.00031 µM. It also gave a Ki [3] of 0.062 nM.
`N#C[C@@H]1CCCN1C(=O)CNC(=O)c1ccnc2ccc(OCCF)cc12` [JHU1220470] showed an IC50 [1] of 1.41 µM, an IC50 [2] of over 20 µM and an IC50 [3] of 0.000343 µM. It also gave a Ki [3] of 0.0686 nM.
`N#C[C@@H]1C[C@H](F)CN1C(=O)CNC(=O)c1ccnc2ccc(F)cc12` [JHU1220471] gave an IC50 [1] of 0.0115 µM, an IC50 ([2]; Table 3, read-out: DPPIV IC50) of 2.53 µM and an IC50 [3] of 0.000734 µM. It also gave a Ki [3] of 0.147 nM.
Molecule `N#C[C@@H]1CCCN1C(=O)CNC(=O)c1ccnc2cc(F)ccc12` [JHU1220501] has an IC50 [1] of 0.522 µM, an IC50 ([2]; Table 3, read-out: DPPIV IC50) of over 20 µM and an IC50 [3] of 0.00216 µM. The Ki [3] was 0.433 nM.
For `N#C[C@@H]1CCCN1C(=O)CNC(=O)c1ccnc2c(F)cccc12` [JHU1220502], the IC50 [1] was 0.0845 µM, the IC50 ([2]; Table 3, read-out: DPPIV IC50) was over 20 µM and the IC50 [3] was 0.00504 µM. It also gave a Ki [3] of 1.01 nM.
`N#C[C@@H]1CCCN1C(=O)CNC(=O)c1c(F)cnc2ccccc12` [JHU1220503] gave an IC50 [1] of 0.688 µM, an IC50 ([2]; Table 3, read-out: DPPIV IC50) of over 20 µM and an IC50 [3] of 0.223 µM. It also gave a Ki [3] of 44.6 nM.
Molecule `N#C[C@@H]1CCCN1C(=O)CNC(=O)c1ccnc2ccc(OCCCN(Cc3ccc(I)cc3)C(=O)CN3CCN(CC(=O)O)CCN(CC(=O)O)CCN(CC(=O)O)CC3)cc12` [JHU1220627] has an IC50 [1] of over 2000 µM, an IC50 ([2]; Table 3, read-out: DPPIV IC50) of 836 µM and an IC50 [3] of 0.00141 µM. For the same molecule, the Ki [3] was 0.28 nM.
`N#C[C@@H]1CCCN1C(=O)CNC(=O)c1ccnc2ccc(OCCCNC(=O)[C@@H](CC(=O)O)NC(=O)[C@@H](CC(=O)O)NC(=O)c3cccc(F)n3)cc12` [JHU1221708] was tested, and the IC50 [1] was 6.91 µM, the IC50 ([2]; Table 3, read-out: DPPIV IC50) was 7.91 µM and the IC50 [3] was 0.00119 µM. The Ki [3] was 0.24 nM.
Work on `N#C[C@@H]1CCCN1C(=O)CNC(=O)c1ccnc2ccc(OCCCN(Cc3ccc(F)nc3)C(=O)CN3CCN(CC(=O)O)CCN(CC(=O)O)CCN(CC(=O)O)CC3)cc12` [JHU1221709] yielded an IC50 [1] of 21.9 µM, an IC50 ([2]; Table 3, read-out: DPPIV IC50) of 12.6 µM and an IC50 [3] of 0.00209 µM. The Ki [3] was 0.42 nM.
With `N#C[C@@H]1CCCN1C(=O)CNC(=O)c1ccnc2ccc(OCCCNC(=O)[C@@H](CC(=O)O)NC(=O)[C@@H](CC(=O)O)NC(=O)c3ccc(F)nc3)cc12` [JHU1221785] the IC50 [1] was 86.6 µM, the IC50 ([2]; Table 3, read-out: DPPIV IC50) was 17.7 µM and the IC50 [3] was 0.00131 µM. For the same molecule, the Ki [3] was 0.26 nM.
